According to patent publication US9279157B2, “EMX2 in cancer diagnosis and prognosis” (The Regents of the University of California, priority 2009, dated 2016):
“Also recorded” adds a separate entry of the source.

Tests used:
Format in all cases: cell-based, human
[1] = tested on: EMX2 expression in NSCLC cell lines; experiment: DAC de-methylation treatment of NSCLC cell lines, EMX2 expression by semi-quantitative RT-PCR; conditions: 5 μM DAC, NSCLC / lung cancer cell lines with initially silenced EMX2
Procedure: Reverse transcription-polymerase chain reaction (RT-PCR) was performed in a GeneAmp PCR system 9700 (Applied Biosystems, Foster City, Calif.), using an RT-PCR kit (SuperScript II one-step RT-PCR with Platinum Taq kit; Invitrogen, Carlsbad, Calif.) according to the manufacturer's protocol. Primers for RT-PCR were obtained from Operon Biotechnologies (Huntsville, Ala.). Total RNA of normal human lung was obtained from the Biochain Institute (Hayward, Calif.). Total RNA (500 ng) was used for each reaction. Primer sequences were as follows: human EMX2 DNA, Forward primer; 5′-[…]-3′ (SEQ ID NO: 3), Reverse primer; 5′-[…]-3′ (SEQ ID NO:4).
Human NSCLC cell lines H1299, H322 and A427 were purchased from American Type Culture Collection (ATCC), (Manassas, Va.). These cell lines were cultured in RPMI 1640 supplemented with 10% fetal bovine serum, penicillin (100 IU/mL) and streptomycin (100 μg/mL). All cells were cultured at 37° C. in a humidified incubator with 5% CO2. Total RNA from cell lines was isolated using RNeasy Mini kit (Qiagen). Treatment with 5 μM 5-aza-2′-deoxycytidine (DAC; Sigma) was done according to Clement G. et al., “Epigenetic alteration of the Wnt inhibitory factor-1 promoter occurs early in the carcinogenesis of Barrett's esophagus.” Cancer Sci 99:46-53 (2008).
Cell Culture and 5-Aza-2′-deoxycytidine (DAC) Treatment. […]

OE33 cells = experiment: DAC de-methylation treatment, EMX2 expression by semi-quantitative RT-PCR in OE33; conditions: OE33 cells that did not originally express EMX2
TE-7 cells = experiment: DAC treatment negative control, EMX2 expression by semi-quantitative RT-PCR in TE-7; conditions: TE-7 cells that endogenously expressed EMX2
[2] = tested on: H1299 cells stably transfected with EMX2; experiment: MTS assay of chemo-synergic effect between EMX2 and cisplatin; conditions: compared with cisplatin or EMX2 alone, cisplatin 0.3 ng/ml (FIG. 23D)
Procedure: The chemo-synergic effect between EMX2 and cisplatin was examined in order to determine whether EMX2 could sensitize NSCLC cells to cisplatin treatment. The H1299 lung cancer cell line was stably transfected with EMX2 The chemo-synergic effect between EMX2 and cisplatin was measured in this cell line by MTS assay (Promega, Madison, Wis.).
Stable EV- or EMX2 transfected cells were plated in 96-well plates at a density of 500 cells per well in 100 μl of culture medium with G418. Medium was changed every three days. Cell viability was evaluated by CELLTITER 96 Aqueous one solution cell proliferation assay (MTS assay) (Promega, Madison, Wis.) on days 1-7. Briefly, 20 μl of reagent was added to each well and incubated in a culture hood for 2 hr. Absorbance at 490 nm was measured with a kinetic microplate reader (Vmax; Molecular Devices, Sunnyvale, Calif.) and was used as a measure of cell number. Experiments were repeated three times.
Proliferation Assays. Stably transfected cells were plated in 96-well plates at a density of 500-1000 cells/well in 100 μl of G418 culture medium. Medium was changed every day. Cell viability was evaluated in triplicate by CellTiter 96 AQueous (Promega) per manufacturer's protocol. […] Colonies were then fixed by 10% formalin, stained with 0.5% crystal violet and counted.

SMILES | EMX2 expression after DAC treatment [1] | EMX2 expression after DAC treatment (OE33 cells) | EMX2 expression after DAC treatment (OE33 cells; listed as 5-aza-DAC) | EMX2 expression levels after DAC treatment (TE-7 cells) | Suppression of cell proliferation by cisplatin combined with EMX2 [2]
Nc1ncn([C@H]2C[C@H](O)[C@@H](CO)O2)c(=O)n1 [DAC, 5-aza-2′-deoxycytidine] | restored EMX2 expression levels | restoration of EMX2 expression | restored | not affected | 
N.N.[Cl][Pt][Cl] [cisplatin] |  |  |  |  | further enhanced; also recorded: more efficiently suppressed; also recorded: significantly enhanced
